From PMC4157788, “A Small Library of Synthetic Di-Substituted 1, 4-Naphthoquinones Induces ROS-Mediated Cell Death in Murine Fibroblasts” (PLoS ONE, 2014)
Like-named read-outs stand apart in the source and are kept apart here.

How the values were obtained:
L929 cells [1] = test: Catalase and superoxide dismutase (SOD) protection assay (MTT viability); format: cell-based, murine; details: 48 hr; for Protection of compound-treated cells by SOD (viability): compound at IC50, SOD 0.5 mg/ml; for Protection of compound-treated cells by combination of catalase and SOD (viability): compound at IC50, catalase 1 mg/ml + SOD 0.5 mg/ml; for Protection of compound-treated cells by catalase (viability): compound at IC50, catalase 1 mg/ml
Description: L929 cells were plated at 50,000 cells/well in a 96-well flat-bottom plate. Catalase (1 mg/ml), SOD (0.5 mg/ml), or combinations of the two were added to the cells. The cells were also treated with the indicated compounds at a concentration that inhibited 50% of cellular viability or with media or DMSO as controls. Following a 48 h incubation period, cellular viability was assessed as described above (MTT assay).

L929 cells [2] = test: Ascorbic acid protection assay (MTT viability); format: cell-based, murine; details: L929 cells pre-loaded for 4 h with 10 µM ascorbic acid, compound at IC50, 48 hrs
Description: […] The cells were then thoroughly washed with Hank's Balanced Salt Solution (HBSS (Invitrogen) and the MTT viability assay was conducted as described above.

L929 cells [3] = test: Light microscopy of compound-treated cells (morphology); format: cell-based, murine; details: 24 hr, compound at IC50 (H2O2 600 µM), light microscopy 40X
Description: The cells were cultured for 24 h at 37°C, 5% CO2. […] Digital images were captured using the AxioCam HR digital camera and were processed with Axiovision Software, Version 4.1.

L929 cells [4] = test: Flow cytometry assessment of apoptosis (Annexin V-FITC / propidium iodide); format: cell-based, murine; details: 48 hrs, IC50 (lowest concentration tested for highly cytotoxic compounds), versus medium alone
Description: The cells were then washed in FACS buffer (phosphate buffered saline +2% fetal bovine serum), resuspended in 50 µl of buffer and then incubated with 30% normal mouse serum (Sigma) to prevent non-specific staining, for 15 min. at room temperature. The cells were then treated with 5 µl of FITC-conjugated annexin V (1 mg/ml stock) and 2 µl of propidium iodide (5 mg/ml stock). The cells were then mixed gently and incubated at room temperature for 15 minutes in the dark followed by an analysis by flow cytometry within the hour.

L929 cells [5] = test: Detection of reactive oxygen species (ROS) by DHCF-DA; format: cell-based, murine; details: compound at IC50, 24 hrs, fluorometric assay
Description: Cells were plated at 50,000 cells per well in 96-well plates, protected or unprotected by 10 µM ascorbic acid. Following a 4 h incubation period, the cells were then treated with the indicated compounds at the IC50 or with H2O2 as a positive control. Twenty-four hours later, the plates were centrifuged and the supernatants were collected. The adherent cells were treated with 20 µL of 0.25% trypsin (Invitrogen) for 2 min. The cells were then removed and transferred to black-walled 96-well plates to prevent bleeding of fluorescence between sample wells. Dichlorofluorescein-Diacetate (10 µM) (Invitrogen - Molecular Probes), was then added to each well. The plates were then immediately read on a fluorescent plate reader using excitation wavelength of 485 nm and emission wavelength of 538 nm. Fluorescence was determined every 10 min over a 320 min. period.

[6] = tested on: murine fibroblast cell line (L929); test: MTT viability assay; format: cell-based; details: L929 cells; for Toxicity group: 48 hrs, MTT, Group I no difference from DMSO, Group II dose-responsive inhibition, Group III >50% inhibition at the lowest concentration; for IC50: Mus musculus, read-out: IC50 (concentration of compound that induces 50% inhibition of survival); for IC50 / IC50 (concentration of compound that induces 50% inhibition of survival): MTT assay, 48 hrs incubation, doubling dilutions
Description: The MTT (3-(4, 5-dimethylthiazol-2-yl)-2, 5-diphenyl tetrazolium bromide) viability assays were carried out as per manufacturers' instructions (Sigma). The L929 cells were plated at 50,000 cells per well in a 96-well flat-bottom plate (Becton-Dickinson Labware, Franklin Lakes, NJ). The cells were cultured with decreasing concentrations of the compounds (in duplicate), beginning at 0.50 mg/ml and decreasing by half over eleven additional dilutions. As controls, cells remained untreated (media alone) or were treated with equivalent dilutions of dimethylsulfoxide (DMSO, vehicle control) (Sigma). Following a 48 h incubation, the MTT reagent was added at 10% of the total volume per well. Following a 4 h incubation, the formed crystals were solubilized by removing approximately ¾ of the supernatant and adding 50 µl of solvent (10% Triton × and 1% 12 N HCl in isopropanol) (Sigma). All wells were vigorously pipetted (without forming bubbles) to help dissolve the crystals. The plates were then read in a 96-well plate spectrophotometer at 570 nm.

caspase 3 in L929 cells = test: Detection of active caspase-3 (colorimetric DEVD-pNA assay); format: cell-based, murine; details: 24 h treatment
Description: The assay was performed as per the manufacturers' instructions (BioSource International, Camarillo, CA). The L929 cells were plated at 3×10^6 cells per well in 6-well plates. The cells were then treated with the indicated compounds for 24 h. After treatment with the compounds, the cells were centrifuged, washed twice with 1× PBS, were re-suspended in 50 µL of chilled Cell Lysis Buffer and were incubated for 10 min. on ice. The samples were then centrifuged and the cytosolic extracts were then transferred to 96-well flat-bottom plates. Reaction buffer (5 µL of 1.0 M DTT to 500 µL of 2× Reaction buffer), made just prior to use, and was added to each well. DEVD-pNA substrate (5 µL) was then added to each well and the samples were incubated in the dark for an additional 2 h. The plates were then read on a spectrophotometer at a wavelength of 405 nm.

L929 cells [7] = test: Detection of mitochondrial membrane depolarization (DePsipher, flow cytometry); format: cell-based, murine; details: compound at IC50, DePsipher
Description: L929 cells (5×10^4 cells/well) were cultured in 12-well plates for 48 h in the presence of medium, DMSO, camptothecin (4 µM, positive control) or compound (IC50). The cells were then washed in FACS buffer resuspended in 100 µl of buffer. DePsipher (5, 5′6, 6′-tetrachloro-1, 1′, 3, 3′-tetraethylbenzimidazolylcarbocyanine iodide) (5 µl per sample) (Trevigen, Inc., Gaithersburg, MD) was then added. The cells were incubated at room temp., in the dark for a minimum of 15 min. The cells were assayed within the hour by flow cytometry. 10,000 events per sample were collected and analyzed by EXPO32 software.

SMILES	Effect on cellular morphology (L929 cells [3])	Externalization of phosphatidylserine (Annexin V staining) (L929 cells [4])	Toxicity group [6]	IC50 [6] [µg/mL]	IC50 ([6]; same value converted to µM) [µM]	other results
CC1=CC(=O)c2c(O)cccc2C1=O [Compound 5, 2-methyl-5-hydroxy-1,4-napthoquinone, reference compound]	detrimental to cell survival	promoted externalization of PS significantly above that induced by medium alone	Group III High toxicity	< 1	< 5.3	Protection of compound-treated cells by SOD (viability) (L929 cells [1]): did not protect; Protection of compound-treated cells by combination of catalase and SOD (viability) (L929 cells [1]): did not protect; Protection of compound-treated cells by catalase (viability) (L929 cells [1]): did not protect; Protection of compound-treated cells by ascorbic acid pre-treatment (viability) (L929 cells [2]): partially protected from cell death; Formation of intracellular reactive oxygen species (ROS) (L929 cells [5]): induced levels of ROS equal to that induced by H2O2; Activation of caspase 3 (caspase 3 in L929 cells): activated caspase 3 equivalently; Change in mitochondrial membrane potential (depolarization) (L929 cells [7]): does not activate mitochondrial depolarization
O=C1C(c2ccccc2)=C(c2ccccc2)C(=O)c2ccccc21 [Compound 2, 2,3-diphenyl-1,4-napthoquinone]	detrimental to cell survival	promoted externalization of PS significantly above that induced by medium alone	Group II Intermediate toxicity	30	96.7	Protection of compound-treated cells by SOD (viability) (L929 cells [1]): did not protect; Protection of compound-treated cells by combination of catalase and SOD (viability) (L929 cells [1]): did not protect the cells against compound 2 beyond that provided by catalase alone; Protection of compound-treated cells by catalase (viability) (L929 cells [1]): partially protected; Protection of compound-treated cells by ascorbic acid pre-treatment (viability) (L929 cells [2]): partially protected from cell death; Formation of intracellular reactive oxygen species (ROS) (L929 cells [5]): induced levels of ROS equal to that induced by H2O2; Activation of caspase 3 (caspase 3 in L929 cells): activated caspase 3 equivalently
N#CC1=C(C#N)C(=O)C(Cl)=C(Cl)C1=O [Compound 8, 2,3-dichloro-5,6-dicyano-1,4-benzoquinone]	–	–	Group I No toxicity	–	–	IC50 (concentration of compound that induces 50% inhibition of survival) [6]: No inhibition
CCCC1=CC(=O)c2ccccc2C1=O [Compound 11, 2-propyl-1,4-napthoquinone]	–	promoted externalization of PS significantly above that induced by medium alone	Group II Low toxicity	60	300	–
CCC1=C(C)C(=O)c2ccccc2C1=O [Compound 12, 2-ethyl-3-methyl-1,4-napthoquinone]	–	–	–	30	150	–
CC1=C(C)C(=O)c2ccccc2C1=O [Compound 3, 2,3-dimethyl-1,4-napthoquinone]	–	promoted externalization of PS significantly above that induced by medium alone	–	8	42.9	–
CC1=C(C/C=C(\C)CCC[C@H](C)CCC[C@H](C)CCCC(C)C)C(=O)c2ccccc2C1=O [Compound 9, 2-methyl-3-phytyl-1,4-naphthoquinone, reference compound]	no effect on the cells	promoted externalization of PS significantly above that induced by medium alone	–	–	–	Formation of intracellular reactive oxygen species (ROS) (L929 cells [5]): induced ROS equal to that generated in non-treated cells; IC50 (concentration of compound that induces 50% inhibition of survival) [6]: No inhibition
CC(C)=CCC1=C(O)C(=O)c2ccccc2C1=O [Compound 4, 2-hydroxy-3-(3-methyl-2 butenil)-1, 4 naphthoquinone]	–	promoted externalization of PS significantly above that induced by medium alone	–	15	62	–
O=C1C=CC(=O)c2ccccc21 [Compound 6, 1,4-napthoquinone]	–	promoted externalization of PS significantly above that induced by medium alone	–	< 1	< 6.3	Activation of caspase 3 (caspase 3 in L929 cells): activated caspase 3 equivalently
O=C1c2ccccc2C(=O)C2OC12 (stereo not drawn) [Compound 10, 1,4-napthoquinone epoxide]	–	–	–	4	23	–
OO [Compound H2O2, hydrogen peroxide]	rounded, granular, and vesiculated	–	–	–	–	–
O=C1C=CC(=O)c2c(O)cccc21 [Compound 7, 5-hydroxy-1,4-napthoquinone, reference compound]	–	promoted externalization of PS significantly above that induced by medium alone	–	< 1	< 5.7	–
